Experimental findings from publication PMC9324933 (Chemistry (Weinheim an Der Bergstrasse, Germany), 2022) are described below.

Data set [1] can be described thus: N-octanol/water partition coefficient. It counts as physicochemical. The settings on record: RP-TLC, MOPS pH 7.4/acetonitrile.
Data set [2] in a line: Redox potentials by cyclic voltammetry and differential pulse voltammetry. It counts as physicochemical. The conditions noted are these: redox potential versus ferrocene/ferrocenium (FcH/FcH+); acetonitrile, 23 °C.
The subject of the next data set is A2780 cells. The data set is described as follows: Viability of A2780 cells. The conditions noted are these: read-out: IC50 A2780 cells; human ovarian cancer cells, 48 h, MTT. It counts as cell-based.
For another data set, the system named is BL‐2 cells. The data set is described as follows: Viability of BL-2 cells. It counts as cell-based. The conditions noted are these: read-out: IC50 BL‐2 cells; human Burkitt's lymphoma cells, 48 h, MTT.

The structures appear in SMILES notation. A value given as a limit tells only on which side of the number the result lay.

For the molecule `[Fe+2].c1cc[cH-]c1.c1cc[cH-]c1` [FcH, ferrocene], in data set [1], the LogP worked out at 3.40. In data set [2], the E1/2 is 0 mV. The IC50 with A2780 cells and with BL‐2 cells was > 50 µM throughout.
